IC50 data for 14 compounds are collected here from patent US11098032B2, “Pyran dervatives as CYP11A1 (cytochrome P450 monooxygenase 11A1) inhibitors” (ORION CORPORATION, priority 2016, dated 2021).

Structures can show the parent of a compound that is named as a salt.

The assay addresses T1, CYP11A1 (Homo sapiens, UniProt P05108).
T1 construct: human H295R adrenocortical carcinoma cell line was used as source of enzyme; endogenous in cells; host or cells: H295R human adrenocortical carcinoma cells
T1 sequence (P05108 40-521): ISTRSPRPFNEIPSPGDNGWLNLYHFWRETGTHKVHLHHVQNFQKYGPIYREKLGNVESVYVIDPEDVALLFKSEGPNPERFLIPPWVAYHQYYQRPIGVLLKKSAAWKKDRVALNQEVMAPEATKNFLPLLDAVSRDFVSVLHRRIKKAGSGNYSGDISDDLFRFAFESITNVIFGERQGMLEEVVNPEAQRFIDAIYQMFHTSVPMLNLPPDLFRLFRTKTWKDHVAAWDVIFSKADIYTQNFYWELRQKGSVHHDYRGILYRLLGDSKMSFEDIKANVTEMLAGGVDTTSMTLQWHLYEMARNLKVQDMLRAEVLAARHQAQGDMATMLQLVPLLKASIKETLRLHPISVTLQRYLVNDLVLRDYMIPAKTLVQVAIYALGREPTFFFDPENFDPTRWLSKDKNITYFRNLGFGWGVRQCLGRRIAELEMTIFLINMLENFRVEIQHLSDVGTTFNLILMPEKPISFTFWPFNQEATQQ
As to the kind of experiment: CYP11A1 inhibition: modified isocaproic acid release assay (IARA) in H295R cells. The assay is classed as cell-based. The conditions noted are these: human H295R adrenocortical carcinoma cells treated three days, 3 nM [24,25-3H]-labelled cholesterol, 1% DMSO, 10 concentrations in duplicates; read-out: IC50 of the test compounds on CYP11A1 inhibition. The essentials:
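H295R adrenocortical cells treated three days with test compounds at 10 concentrations in duplicate plus 3 nM [24,25-3H]-cholesterol, 1% DMSO final. Released radiolabelled isocaproic acid measured by scintillation counting after dextran-coated charcoal extraction; IC50 determined.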
The term IC50 denotes the midpoint of a concentration-inhibition curve. As for `CS(=O)(=O)c1ccc(COc2coc(CN3CCc4ccccc4C3)cc2=O)cc1` [Compound 14, 2-((3,4-Dihydroisoquinolin-2(1H)-yl)methyl)-5-((4-(methylsulfonyl)benzyl)oxy)-4H-pyran-4-one], the concentration for half-maximal inhibition (IC50) is 301 to 2000 nM. In the case of `CNC(=O)c1ccc(COc2coc(CN3CCc4ccccc4C3)cc2=O)cc1F` [Compound 80, 4-(((6-((3,4-Dihydroisoquinolin-2(1H)-yl)methyl)-4-oxo-4H-pyran-3-yl)oxy)-methyl)-2-fluoro-N-methylbenzamide] it was 301 to 2000 nM. In the case of `CS(=O)(=O)c1ccc(COc2coc(CN3Cc4cc(F)c(F)cc4C3)cc2=O)cc1` [Compound 26, 2-((5,6-Difluoroisoindolin-2-yl)methyl)-5-((4-(methylsulfonyl)benzyl)oxy)-4H-pyran-4-one] it was 150 to 300 nM; in that of `CC(C)(C)OC(=O)N1CC[C@H](COc2coc(CN3Cc4ccccc4C3)cc2=O)C1` [Compound 200, (S)-tert-Butyl 3-(((6-(isoindolin-2-ylmethyl)-4-oxo-4H-pyran-3-yl)oxy)methyl)-pyrrolidine-1-carboxylate], 150 to 300 nM; in that of `CNC(=O)c1ccc(COc2coc(CN3Cc4ccccc4C3)cc2=O)cc1` [Compound 62, 4-(((6-(Isoindolin-2-ylmethyl)-4-oxo-4H-pyran-3-yl)oxy)methyl)-N-methylbenzamide], 301 to 2000 nM.

With `CS(=O)(=O)c1ccc(COc2coc(CN3Cc4ccccc4C3)cc2=O)c(C(F)(F)F)c1` [Compound 19, 2-(Isoindolin-2-ylmethyl)-5-((4-(methylsulfonyl)-2-(trifluoromethyl)benzyl)oxy)-4H-pyran-4-one], the 50% inhibitory concentration (IC50) lay in the range of 301 to 2000 nM. In the case of `CC(C)NC(=O)N1CCC(COc2coc(CN3Cc4ccccc4C3)cc2=O)CC1` [Compound 229, 4-(((6-(Isoindolin-2-ylmethyl)-4-oxo-4H-pyran-3-yl)oxy)methyl)-N-isopropyl-piperidine-1-carboxamide] it was less than 150 nM; in that of `CCS(=N)(=O)c1ccc(COc2coc(CN3Cc4ccc(F)cc4C3)cc2=O)cc1` (centres unmarked) [Compound 102, 5-((4-(Ethylsulfonimidoyl)benzyl)oxy)-2-((5-fluoroisoindolin-2-yl)methyl)-4H-pyran-4-one], 150 to 300 nM. `CC(=O)OCC(C)(C)NC(=O)c1ccc(COc2coc(CN3Cc4ccccc4C3)cc2=O)cc1` [Compound 143, 2-(4-(((6-(Isoindolin-2-ylmethyl)-4-oxo-4H-pyran-3-yl)oxy)methyl)benzamido)-2-methylpropyl acetate]: the concentration for half-maximal inhibition (IC50) was in the range of 150 to 300 nM. `Cc1ccc2c(c1)CN(Cc1cc(=O)c(OCC3CCN(S(C)(=O)=O)CC3)co1)C2` [Compound 211, 2-((5-Methylisoindolin-2-yl)methyl)-5-((1-(methylsulfonyl)piperidin-4-yl)-methoxy)-4H-pyran-4-one]: the IC50 is less than 150 nM. On to `O=c1cc(CN2Cc3ccccc3C2)occ1OCC1CCN(S(=O)(=O)N2CCC2)CC1` [Compound 268, 5-((1-(Azetidin-1-ylsulfonyl)piperidin-4-yl)methoxy)-2-(isoindolin-2-ylmethyl)-4H-pyran-4-one], for which the half-inhibitory concentration (IC50) lay within 150 to 300 nM.

Consider `O=CN1CCC(COc2coc(CN3Cc4ccccc4C3)cc2=O)CC1` [Compound 284, 4-(((6-(Isoindolin-2-ylmethyl)-4-oxo-4H-pyran-3-yl)oxy)methyl)piperidine-1-carbaldehyde, HCl], for which the IC50 fell in the range of 150 to 300 nM.

Turning to `O=c1cc(CN2Cc3ccccc3C2)occ1OCc1ccc(S(=O)(=O)N2CCCC2)cc1` [Compound 5, 2-(Isoindolin-2-ylmethyl)-5-((4-(pyrrolidin-1-ylsulfonyl)benzyl)oxy)-4H-pyran-4-one], the half-maximal inhibitory concentration (IC50) is less than 150 nM. As to `CCN(CC)C(=O)c1ccc(COc2coc(CN3Cc4ccccc4C3)cc2=O)cc1` [Compound 126, N,N-Diethyl-4-(((6-(isoindolin-2-ylmethyl)-4-oxo-4H-pyran-3-yl)oxy)methyl)-benzamide], the IC50 is 150 to 300 nM.
